Assay results: ChEMBL document CHEMBL1201862, “PubChem BioAssay data set” (2004)
Calls of active or inactive are those of the source.

Columns and labels:
[1] = reduction of Shn3 3'UTR-driven luciferase in osteoblasts – cell-based, Clone20 osteoblasts, firefly luciferase, cherry-picked, dose response (AID 624132); type: functional;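 note: firefly luciferase luminescence from reporter carrying the Shn3 3'UTR in osteoblasts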
[2] = loss of viability in HepG2 cells – cell-based, CellTiter-Glo, cherry-picked, cytotoxicity control for Shn3 inhibitor project, dose response (AID 624134); type: functional
[3] = non-specific 3'UTR reporter inhibition in Clone20-Shn3RL – cell-based, Renilla luciferase, cherry-picked, counter-screen for Shn3 inhibitor project, dose response (AID 624133); type: functional
P388/ADR = assay: cells; type: functional; settings: Mus musculus
SN12K1 = assay: cells; type: functional; settings: Homo sapiens
P388 = assay: cells; type: functional; settings: Mus musculus
cells [4] = type: functional, cell-based
cells [5] = type: functional, cell-based; remark: listed apart in the source
Large T antigen = Large T antigen (Simian virus 40, UniProt P03070); type: functional, Betapolyomavirus macacae;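 note: Confirmatory-stage PubChem screen for compounds that inhibit SV40 T antigen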
Sequence of Large T antigen (P03070 whole entry): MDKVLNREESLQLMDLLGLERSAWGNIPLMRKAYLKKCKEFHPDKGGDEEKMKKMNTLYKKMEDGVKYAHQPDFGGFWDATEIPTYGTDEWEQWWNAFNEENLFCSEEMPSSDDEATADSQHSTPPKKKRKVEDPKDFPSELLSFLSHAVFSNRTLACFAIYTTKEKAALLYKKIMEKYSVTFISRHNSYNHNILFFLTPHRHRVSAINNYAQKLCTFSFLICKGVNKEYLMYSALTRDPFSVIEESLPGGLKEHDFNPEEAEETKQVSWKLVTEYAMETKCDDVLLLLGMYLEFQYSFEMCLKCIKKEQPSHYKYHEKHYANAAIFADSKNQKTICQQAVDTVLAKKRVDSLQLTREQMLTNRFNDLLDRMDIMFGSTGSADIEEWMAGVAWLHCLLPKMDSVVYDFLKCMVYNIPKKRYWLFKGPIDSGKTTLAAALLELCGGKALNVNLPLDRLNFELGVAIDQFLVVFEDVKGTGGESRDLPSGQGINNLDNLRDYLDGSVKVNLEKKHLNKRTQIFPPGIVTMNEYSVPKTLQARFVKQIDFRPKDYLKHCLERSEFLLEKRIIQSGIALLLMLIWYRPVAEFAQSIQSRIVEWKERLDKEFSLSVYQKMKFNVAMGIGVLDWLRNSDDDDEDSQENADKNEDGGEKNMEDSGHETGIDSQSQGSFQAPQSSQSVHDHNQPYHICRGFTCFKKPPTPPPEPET

Protein skinhead-1 = target: T1, Protein skinhead-1 (Caenorhabditis elegans, UniProt P34707); type: functional
T1 sequence (P34707 whole entry): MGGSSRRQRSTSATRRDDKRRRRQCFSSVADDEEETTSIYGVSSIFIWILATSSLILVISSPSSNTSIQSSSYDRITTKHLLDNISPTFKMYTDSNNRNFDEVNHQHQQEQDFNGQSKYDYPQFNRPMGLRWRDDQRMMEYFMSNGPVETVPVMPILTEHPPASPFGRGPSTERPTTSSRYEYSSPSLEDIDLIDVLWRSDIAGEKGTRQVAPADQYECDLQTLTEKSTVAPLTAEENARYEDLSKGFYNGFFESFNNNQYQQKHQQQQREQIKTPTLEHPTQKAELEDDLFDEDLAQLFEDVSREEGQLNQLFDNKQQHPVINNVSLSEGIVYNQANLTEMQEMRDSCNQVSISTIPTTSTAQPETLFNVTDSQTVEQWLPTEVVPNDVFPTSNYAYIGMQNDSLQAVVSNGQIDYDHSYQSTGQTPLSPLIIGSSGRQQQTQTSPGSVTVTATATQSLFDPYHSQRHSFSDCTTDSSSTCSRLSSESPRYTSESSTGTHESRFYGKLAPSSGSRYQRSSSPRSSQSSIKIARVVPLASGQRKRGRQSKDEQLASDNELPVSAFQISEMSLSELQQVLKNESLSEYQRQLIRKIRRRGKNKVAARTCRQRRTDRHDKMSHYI

[6] = system: Streptococcus sp. 'group A'; assay: Streptococcus pyogenes SK(-)GAS viability under kanamycin – luminescence, BacTiterGlo, confirmation, counter-screen for streptokinase expression inhibitor project, dose response (AID 1900); type: functional, organism-based
Streptokinase A = target: T2, Streptokinase A (Streptococcus pyogenes serotype M1, UniProt P10520); assay: viability-normalized secreted streptokinase activity reduction – plasminogen activation absorbance, OD405, dose response (AID 1914); type: functional, Streptococcus pyogenes M1 GAS;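 note: secreted streptokinase activity via plasminogen activation per viability signal from cell pellet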
T2 sequence (P10520 whole entry): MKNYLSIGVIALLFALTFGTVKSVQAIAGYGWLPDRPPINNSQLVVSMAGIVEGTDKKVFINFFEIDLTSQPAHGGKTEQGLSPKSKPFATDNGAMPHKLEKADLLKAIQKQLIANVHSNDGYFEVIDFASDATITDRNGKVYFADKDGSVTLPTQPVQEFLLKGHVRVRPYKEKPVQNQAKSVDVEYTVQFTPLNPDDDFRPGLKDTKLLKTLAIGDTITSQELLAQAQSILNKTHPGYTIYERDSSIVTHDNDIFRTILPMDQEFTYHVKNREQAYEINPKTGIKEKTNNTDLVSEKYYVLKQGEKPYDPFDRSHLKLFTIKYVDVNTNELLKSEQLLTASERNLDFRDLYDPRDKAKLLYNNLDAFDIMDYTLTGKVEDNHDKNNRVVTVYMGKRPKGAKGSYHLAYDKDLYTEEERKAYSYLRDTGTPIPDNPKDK

Streptococcus = assay: GAS UMAA2166 growth inhibition – luminescence, BacTiterGlo, counter-screen for streptokinase expression inhibitor project, dose response (AID 1915); type: functional, organism-based;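 note: potency for reduction of bacterial viability or growth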
INS1 = assay: INS-1E survival protection against cytokine death – cell-based, luminescence, retest, dose response (AID 449756); type: functional; settings: Rattus norvegicus;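 note: cell death triggered by IL-1 beta plus TNF-alpha plus IFN-gamma mixture; protective hits raise ATP signal compared with cytokine alone wells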
[7] = luciferase reporter signal suppression in cells – H4 neuroglioma cells, luminescence, dose response (AID 1990); type: functional, cell-based
[8] = Luminescence Cell-Based Dose Response HTS to Identify Inhibitors of 5'UTR Stem-Loop Driven Prion Protein mRNA Translation in H4 Neuroglioblastoma Cells. [Related pubchem assays: 1827 (Project Summary), 1813 (Primary HTS)]; type: functional
[9] = alpha-synuclein stem-loop luciferase translation blockers – H4 neuroglioma cells, luminescence, confirmation (AID 1988); type: functional, cell-based
HEK293 = assay: EBV LMP1 TES2 canonical NF-kB signalling blockers – cell-based, HEK293, luciferase, cherry-pick, dose response (AID 588343); type: functional; settings: Homo sapiens

COC(=O)C1=C(c2ccc(-c3ccccc3)c(F)c2)C[C@@H]2CC[C@H]1N2C(=O)NCC1CC1
AC50 [1]: 4.32 µM (active)
AC50 [2]: > 70 µM (inactive)
AC50 [3]: 30.6 µM (active)

CSc1sc(=S)sc1SC
GI50 (P388/ADR): > 100 µM (inactive)
GI50 (SN12K1): > 63.1 µM (inactive)
GI50 (P388): 60.8 µM (inactive)

Cc1ccc(C(CC(=O)O)C2CCOC(C)(C)C2)cc1 (centres undefined)
EC50 (cells [4]): > 350 µM (not active)
EC50 (cells [5]): > 350 µM (not active)

CCCn1cnc2cc(NCc3cccc(OC)c3O)ccc21
IC50 (Large T antigen): 22.1 µM (active)
IC50 (Protein skinhead-1): > 100 µM (inactive)

Cc1ccccc1/C=C/C(=O)c1ccc([N+](=O)[O-])o1
EC50 [6]: 2.37 µM (active)
EC50 (Streptokinase A): 50.9 µM (inconclusive)
IC50 (Large T antigen): 83.2 µM (active)
EC50 (Streptococcus): 10.6 µM (active)
AC50 (INS1): 3.15 µM (active)

CCC/C=C/C=C\C(=O)O[C@@H]1[C@@H](C)[C@]2(O)[C@@H]3C=C(C)C(=O)[C@H]3CC(COC(C)=O)=C[C@H]2[C@@H]2C(C)(C)[C@]12OC(C)=O
GI50 (P388/ADR): 1.79 µM (inactive)
GI50 (SN12K1): 1.98 µM (inactive)
GI50 (P388): 1.12 µM (inactive)

C=C1C(=O)OC2CC(C)C3C4OC4C(O)C3(C)C(O)C12 (centres undefined)
GI50 (P388/ADR): 8.85 µM (inactive)
GI50 (SN12K1): 24.8 µM (inactive)
GI50 (P388): 8.02 µM (inactive)

C=C(NC(=O)C(=C)NC(=O)c1csc(C2=NC3c4csc(n4)C4NC(=O)c5csc(n5)C(C(C)(O)C(C)O)NC(=O)C5CSC(=N5)/C(=C/C)NC(=O)C(C(C)O)NC(=O)c5csc(n5)C3(CC2)NC(=O)C(C)NC(=O)C(=C)NC(=O)C(C)NC(=O)C(C(C)CC)NC2C=Cc3c(C(C)O)cc(nc3C2O)C(=O)OC4C)n1)C(N)=O (centres undefined)
GI50 (P388/ADR): 1.27 µM (inactive)
GI50 (SN12K1): 0.968 µM (active)
GI50 (P388): 0.0407 µM (active)

N#Cc1ccccc1S(=O)(=O)N1CCN(c2cnccn2)CC1
EC50 (cells [4]): > 350 µM (not active)
EC50 (cells [5]): > 350 µM (not active)

O=C(Nc1cnc2ccccn2c1=O)c1ccc(Cl)cc1Cl
EC50 [7]: 10.1 µM (inconclusive)
EC50 [8]: 5 µM (active)
EC50 [9]: 5.78 µM (active)
AC50 (HEK293): 2.55 µM (active)

O=S(=O)(c1cccc(C(F)(F)F)c1)N1CCC(c2nc(O)c3nnn(Cc4cccc(F)c4)c3n2)CC1
EC50 (cells [4]): > 350 µM (not active)
EC50 (cells [5]): > 350 µM (not active)

COC(=O)C1=CC[C@@H]2C(C(=O)O)=CO[C@@H](OC3OC(CO)C(O)C(O)C3O)[C@H]12 (some centres undefined)
GI50 (P388/ADR): > 139 µM (inactive)
GI50 (SN12K1): > 300 µM (inactive)
GI50 (P388): > 300 µM (inactive)

CC(C)C1C(=O)N(Cc2cn(CCC3OCCO3)nn2)CCS(=O)(=O)N1Cc1ccc(-c2ccc(Cl)c(Cl)c2)cc1 (centres undefined)
AC50 [1]: 1.28 µM (active)
AC50 [2]: > 70 µM (inactive)
AC50 [3]: 3.36 µM (active)

Cc1ccc(C(=O)Nc2sc(Cc3ccc4c(c3)OCO4)c(C)c2C(N)=O)cc1
AC50 (HEK293): 130 µM (active)
